Assay [1] deals with L1210. Description: The activity in vitro on L1210 murine leukemia cells, activity expressed as IC50. It counts as functional, cell-based, Mus musculus.
For assay [2], the system named is L1210. The assay is described as follows: In vitro inhibitory activity against FCE 24517 resistant L1210 leukemia cell lines ( ratio between IC50 values on resistant cells and sensitive cells). The assay is classed as functional, Mus musculus.
Assay [3] deals with L1210. Description: In vitro inhibitory activity against Doxorubicin resistant L1210 leukemia cell lines ( ratio between IC50 values on resistant cells and sensitive cells). The assay is classed as functional, Mus musculus.
The test system of assay [4] is L1210. Description: Optimal dose was measured in vivo on L1210 murine leukemia cells in CD2F1 mice(ip). It counts as functional, Mus musculus.
Assay [5] has as its system Mus musculus. The assay is described as follows: Median survival time of treated mice / Median survival time of controls x100 was measured in vivo on L1210 murine leukemia cells. The assay is classed as functional.
The mark [6] stands for this setting: Mus musculus, L1210, read-out: IC50.

Each structure is given as a SMILES string. ≈ marks a conversion by molar mass, not a printed value.

As to `C=C(Br)C(=O)O`, the IC50 – broadly, the point on the concentration scale where inhibition reaches its midpoint – in assay [1] (setting [6]) worked out at 18.8 µg/mL (≈ 125 µM). Besides, the R.I came out at 0.5 in assay [2] and 1.1 in assay [3].

In assay [1] (l1210), `O=C(O)C1CO1` (stereo not drawn) showed an IC50 of 131.397 µg/mL (≈ 1490 µM). For the same molecule, the figures for the R.I in assay [2] and in assay [3] were 0.5 and 1, respectively.

With `Cl.Cn1cc(NC(=O)c2cc(NC(=O)c3cc(NC(=O)c4cc(NC=O)cn4C)cn3C)cn2C)cc1C(=O)NCCC(=N)N`, the half-maximal inhibitory concentration (IC50) in assay [1] (setting [6]) was 0.285 µg/mL. In addition, the R.I in assay [2] was 169.9; in assay [3], 175.4.

As for `Cl.Cn1cc(NC(=O)c2cc(NC(=O)c3cc(NC(=O)c4cc(NC(=O)C5CO5)cn4C)cn3C)cn2C)cc1C(=O)NCCC(=N)N` (stereo not drawn), the IC50 in assay [1] (setting [6]) is 0.0389 µg/mL. For the same molecule, the R.I in assay [2] was 24.1; in assay [3] it was 1.7. Further, the OD in assay [4] is 3.125 mg/kg. Besides, the T/C – broadly, the result in the treated group divided by that in the control group, in per cent – in assay [5] is recorded as 188%.

For the molecule `C=C(Cl)C(=O)Nc1cc(C(=O)Nc2cc(C(=O)Nc3cc(C(=O)NCCC(=N)N)n(C)c3)n(C)c2)n(C)c1.Cl`, in assay [1] (setting [6]), the 50% inhibitory concentration (IC50) stood at 0.056 µg/mL. The figures for the R.I in assay [2] and in assay [3] were 24.8 and 40.3, respectively. In assay [4], the OD turned out to be 10 mg/kg. The T/C in assay [5] came to 184%.

For `C=C(Br)C(=O)Nc1cc(C(=O)Nc2cc(C(=O)Nc3cc(C(=O)NCCC(=N)N)n(C)c3)n(C)c2)n(C)c1.Cl`, in assay [1] (setting [6]), the IC50 worked out at 0.0496 µg/mL. For the same molecule, the results for the R.I in assay [2] and in assay [3] were 11.4 and 8.8, respectively. In addition, in assay [4], the OD came out at 12.5 mg/kg. Moreover, the T/C in assay [5] is listed as 175%.

In the case of `Cl.Cn1cc(NC(=O)c2cc(NC(=O)c3cc(NC(=O)C4CO4)cn3C)cn2C)cc1C(=O)NCCC(=N)N` (stereo not drawn), in assay [1] (setting [6]), the IC50 was 0.229 µg/mL. Moreover, the R.I in assay [2] was 44.4; in assay [3], 7.1. The molecule also yielded an OD in assay [4] of 50 mg/kg. Also, the T/C in assay [5] is listed as 188%.

As to `Cl.Cn1cc(NC(=O)c2cc(NC(=O)c3cc(NC(=O)c4cc(NC(=O)c5ccc(N(CCCl)CCCl)cc5)cn4C)cn3C)cn2C)cc1C(=O)NCCC(=N)N`, the half-inhibitory concentration (IC50) in assay [1] (setting [6]) turned out to be 0.0163 µg/mL. Also, the R.I in assay [2] came out at 65.4. The OD in assay [4] worked out at 0.39 mg/kg. In assay [5], this molecule yielded a T/C of 138%.

Turning to `C=C(Br)C(=O)Nc1cc(C(=O)Nc2cc(C(=O)Nc3cc(C(=O)Nc4cc(C(=O)NCCC(=N)N)n(C)c4)n(C)c3)n(C)c2)n(C)c1.Cl`, the IC50 in assay [1] (setting [6]) is 0.0047 µg/mL. Also, the R.I in assay [2] worked out at 27; in assay [3] it was 3.8. Moreover, the OD in assay [4] was found to be 3.125 mg/kg. In assay [5], the T/C worked out at 206%.

Turning to `C=C(Cl)C(=O)Nc1cc(C(=O)Nc2cc(C(=O)Nc3cc(C(=O)Nc4cc(C(=O)NCCC(=N)N)n(C)c4)n(C)c3)n(C)c2)n(C)c1.Cl`, the IC50 in assay [1] (setting [6]) worked out at 0.0027 µg/mL. The R.I in assay [2] is on record as 69.6; in assay [3], 59.9. Besides, the OD in assay [4] stood at 3.125 mg/kg. The T/C in assay [5] worked out at 171%.

Turning to `Cn1cc(NC(=O)c2cc(NC(=O)c3cc(NC=O)cn3C)cn2C)cc1C(=O)NCCC(=N)N` [STALLIMYCIN], the IC50 in assay [1] (setting [6]) was determined as 5.22 µg/mL (≈ 10.8 µM). Also, the R.I in assay [2] is reported as 14.1; in assay [3] it was 45.6. In assay [4], the OD stood at 200 mg/kg. In assay [5], the T/C amounted to 113%.

Regarding `Cl.Cn1cc(NC(=O)c2cc(NC(=O)c3cc(NC(=O)c4ccc(N(CCCl)CCCl)cc4)cn3C)cn2C)cc1C(=O)NCCC(=N)N` [TALLIMUSTINE CHLORIDE], the IC50 in assay [1] (setting [6]) was determined as 0.0244 µg/mL. The values for the R.I in assay [2] and in assay [3] were 21.7 and 28, respectively. The molecule also gave an OD in assay [4] of 3.125 mg/kg. Moreover, the T/C in assay [5] is 175%.
